According to patent publication US6096788A, “Antimalaria and antibabesiosis agents and pharmaceutical compositions containing such agents” (priority 1996, dated 2000):

How the values were obtained:
[1] = tested on: Plasmodium vinckei, petterei or chabaudi; assay: Therapeutic index in infected mice (antimalaria activity compared with semi-chronic toxicity); type: in vivo; settings: i.p. or s.c., twice a day for four days, ratio of activity over toxicity (LD50)
Description: In order to evaluate the therapeutic index of the different products, the activity of these products was tested in vivo and compared with […] toxicity in animals. This activity was measured using the test described by PETERS W. (Chemotherapy and Drug resistance in Malaria, 1970). A compound was administered for four consecutive days to mice previously infected with Plasmodium vinckei, petterei or chabaudi. The said compound was dissolved in a 0.9% NaCl solution. The preparations were thus administered intraperitoneally or subcutaneously in male Swiss mice infected by intravenous injection of Plasmodium petterei or Plasmodium chadaudi (10^6 infected cells). The compound was administered twice a day for four consecutive days, the first injection being performed two hours after the infestation and the second, 10 hours later. The parasitemia was determined on blood smears the day after the end of treatment. Toxicity was measured in vivo following the same schedule, the animals having received, under the same administration conditions as above, two injections per day for four days (semi-chronic toxicity). The results are expressed in lethal dose 50 (LD50), i.e. the dose causing death in 50% of the animals.
The results of these trials are summarized in Table I, below, and expressed as therapeutic index, or the ratio of activity over toxicity measured under the identical conditions described above.

[2] = tested on: Babesia bovis, Babesia canis; assay: In vitro antibabesia activity, (3H) hypoxanthine incorporation; type: cell-based; settings: score from ED50 of (3H) hypoxanthine incorporation
Text: The screening process for antimalaria activity, based on parasite incorporation of (^3 H) hypoxanthine was used to test the antimetabolic activity of such components against Babesia bovis, Babesia canis. A tight relationship was found between the rate of (^3 H) hypoxanthine incorporation using standard measurements and the percentage of parasitized cells determined by microscopy. […] The score was ++ for the same activity at a concentration of 0.01 to 0.1 micromoles and finally + for a concentration under or equal to 1 micromole.

[3] = tested on: P. falciparum (FVO isolate); assay: Antimalaria activity of G25 in Aotus lemurinus monkey infected by P. falciparum FVO isolate; type: in vivo
Text: Besides chimpanzees, only two South American monkey species, Aotus and Saimiri seirius, can be infected by P. falciparum. Currently, infection of Aotus monkeys with the human parasite is the best, and quasi-unique, model for evaluating therapeutic or vaccinal interventions against malaria (Collins W. E., Gallaud C. G., Sullivan J. S., and Morris C. L., "Selections of different strains of Plasmodium falciparum for testing blood stages in Aotus nancymal monkeys" An. J. Trop. Med. Hyg., 1994, 51 (2) 224-232).
The antimalaria activity was thus evaluated in the Aotus lemurinus monkey infected by the FVO (falciparum Vietnam Oaknoll) isolate of P. falciparum. This isolate is chloroquine-resistant and inevitably lethal for Aotus monkeys at the "Fundacion Centro de Primates" at the University del Valle, Cali, Colombia.
Treatment with G25 (dissolved in 0.9% NaCl) was initiated when the parasitemia reached 5.6%; 16 doses (0.2 mg/kg b.i.d. for 8 days) were given. […] The parasitemia in a monkey treated by combination sulfadoxine/pyrimethamine (FANSIDAR) is given for comparison.
In all, 15 monkeys were infected, then treated with G25 given by intramuscular injections at doses ranging from 0.010 to 0.2 mg/kg.

[4] = Maximal tolerable dose and therapeutic index in the monkey; settings: in vivo

For `C[N+]1(CCCCCCCCCCCCCC[N+]2(C)CCCC2CO)CCCC1CO` (stereo not shown) [EXAMPLE 18, 1,1'-(1,14-tetradecanediyl)bis(2-hydroxymethl-1-methylpyrrolidium) dibromide], the Therapeutic index [1] was 22 and the “Antibabesia activity at 10 millimoles” value [2] was “+++ (a 50% inhibition of (^3 H) hypoxanthine incorporation (ED50), these molecules having a concentration less than or equal to 0.01 micromoles)”.

For `C[N+]1(CCCCCCCCCCCCCCCC[N+]2(C)CCCC(CO)C2)CCCC(CO)C1` (stereo not shown) [EXAMPLE 20], the Therapeutic index [1] was 17 and the “Antibabesia activity at 10 millimoles” value [2] was “+++ (a 50% inhibition of (^3 H) hypoxanthine incorporation (ED50), these molecules having a concentration less than or equal to 0.01 micromoles)”.

In the case of `CCC[N+](CCC)(CCC)CCCCCCCCCCCCCCCC[N+](CCC)(CCC)CCC.[Br-].[Br-]` [EXAMPLE 9, N,N,N,N',N',N'-hexapropyl-1,16-hexadecanediaminium dibromide], the Therapeutic index [1] is reported as 36 and the “Antibabesia activity at 10 millimoles” value [2] is reported as “+++ (a 50% inhibition of (^3 H) hypoxanthine incorporation (ED50), these molecules having a concentration less than or equal to 0.01 micromoles)”.

In the case of `CCC[N+](CCC)(CCC)CCCCCCCCCCCCCCCC[N+](CCC)(CCC)CCC.[Br-].[Br-]` [EXAMPLE 12, N,N,N,N',N',N'-hexapropyl-1,16-hexadecanediaminium dibromide], the Therapeutic index [1] is reported as 11 and the “Antibabesia activity at 10 millimoles” value [2] is reported as “++ (the same activity at a concentration of 0.01 to 0.1 micromoles)”.

In the case of `C[N+]1(CCCCCCCCCCCCCCCC[N+]2(C)CCCC2)CCCC1` [Example G25], the Decline in parasitemia ([3]; FVO isolate, 0.2 mg/kg b.i.d. for 8 days, treatment started at 5.6% parasitemia) is reported as “decline in parasitemia was evident at the second dose”, the minimal effective dose ([3]; Plasmodium falciparum, in Primates, im, 4380 h, intramuscular, 6 months follow-up, read-out: Lowest dose with complete cure (validated by PCR), no recurrences) is reported as 0.03 mg/kg and the “Activity at 0.01 mg/kg” value ([3]; intramuscular, 0.01 mg/kg) is reported as “active (parasite clearance) but did not lead to complete cure (recurrence observed)”. It also gave an MTD [4] of roughly 1.5 mg/kg and a selectivity ratio ([4]; read-out: therapeutic index (LD50/ED50) in the monkey) greater than 50.
